Reference: paper PMC11546786, “Designing Analogs of SAAP-148 with Enhanced Antimicrobial and Anti-LPS Activities” (International Journal of Molecular Sciences, 2024)

Experiments:
[1] = system: E. coli; assay: Membrane damage, PI staining and flow cytometry; format: cell-based, Escherichia coli; conditions: 6.25 μM peptide, OD600 0.5 in PBS, 37 °C, 30 min, flow cytometry
Description: (§1) Propidium iodide (PI) was utilized as a marker for assessing the structural integrity of cell membranes and the occurrence of cell death. The impact of peptides on BEAS-2B cells, E. coli, and S. aureus was investigated by treating the cells with peptides followed by PI staining and flow cytometry (FACS) analysis to evaluate peptide-induced membrane damage. Table 5 presents the results of PI staining in BEAS-2B cells (1 × 10^6) following treatment with peptides at a concentration of 6.25 μM. […] FACS analysis at a peptide concentration of 6.25 μM was employed to determine the membrane damage caused by peptides in E. coli and S. aureus cells (Table 5).
(§2) Peptide-induced membrane damage was evaluated by quantifying the influx of propidium iodide (PI). BEAS-2B cells (1 × 10^6 cells in 50 μL) were exposed to a final concentration of 6.25 μM peptide and incubated at 37 °C for 30 min, followed by PBS washing and re-suspension in PI solution (dissolved in PBS) at a final concentration of 2 μg/mL. Bacteria were cultured to mid-log phase at 37 °C, then diluted to an OD600 of 0.5 in phosphate-buffered saline (PBS). […] The bacteria were harvested and re-suspended in PI solution, with fluorescence signal analysis conducted using flow cytometry (Cytomics FC 500, Beckman Coulter, Indianapolis, IN, USA).

[2] = system: Gram-negative bacteria (E. coli, P. aeruginosa, K. pneumoniae); assay: Geometric mean of MICs against Gram-negative bacteria; format: cell-based; parameters: unit not given here
Description: (§3) The antibacterial activities of the peptides against […] were evaluated using a modified version of the Clinical Laboratory and Standards Institute (CLSI) broth microdilution method, as previously described. Briefly, the bacteria were cultured in liquid LB medium (comprising 10 g/L tryptone, 5 g/L yeast extract, and 10 g/L NaCl) at 37 °C until reaching mid-log phase. Subsequently, the bacterial concentration was adjusted to 1 × 10^6 colony-forming units (CFU)/mL. The peptides were then diluted serially with phosphate-buffered saline (PBS), followed by the addition of 50 μL of the diluted peptides to 50 μL of the bacterial suspension in a 96-well plate (Corning Inc., Lowell, MA, USA). After incubating at 37 °C for 18 to 20 h, the absorbance of each well was measured using a multi-well microplate reader (SpectraMax M5; Molecular Devices, Sunnyvale, CA, USA) at 600 nm.

[3] = system: BEAS-2B cells; assay: Membrane damage, PI staining and flow cytometry; format: cell-based; conditions: 6.25 μM peptide, 1 × 10^6 cells, 37 °C, 30 min, flow cytometry
Description: as §1, §2

[4] = CD spectra, secondary structure by BeStSel; format: physicochemical; conditions: 30 μM SDS as printed, 100 μM peptide, 25 °C
Description: CD spectra (Figure S1) were acquired using a JASCO J-1500 spectropolarimeter (JASCO Inc., Easton, MD, USA) in 0.1 cm pathlength cells under nitrogen at 25 °C. The spectra were recorded in the range of 190 to 250 nm at a peptide concentration of 100 μM in SDS. Secondary structure was determined using the BeStSel server. Hydropathicity, mean relative hydrophobic moment, and charge of peptides were predicted using the HeliQuest (https://heliquest.ipmc.cnrs.fr/ (accessed on 12 March 2024)). The 3D structure of SAAP-148 and its analogues (Figure S2) was predicted using PEP-FOLD4 servers (https://bioserv.rpbs.univ-paris-diderot.fr/services/PEP-FOLD4/ (accessed on 19 June 2024)).

[5] = system: five bacterial strains; assay: MICs against all five bacterial strains (geometric mean, range); format: cell-based; parameters: unit not given here; conditions: geometric mean of MICs against all five bacterial strains
Description: as §3

[6] = system: Gram-positive bacteria (S. aureus, S. epidermidis); assay: Geometric mean of MICs against Gram-positive bacteria; format: cell-based; parameters: unit not given here
Description: as §3

[7] = system: S. aureus; assay: Membrane damage, PI staining and flow cytometry; format: cell-based, Staphylococcus aureus; conditions: 6.25 μM peptide, OD600 0.5 in PBS, 37 °C, 30 min, flow cytometry
Description: as §1, §2

[8] = Reversed-phase HPLC retention time as measure of peptide hydrophobicity; format: physicochemical; conditions: retention time by reverse-phase HPLC, reflects hydrophobicity difference between analogues
Text: The physicochemical parameters crucial for the antimicrobial activity of AMPs have been identified, encompassing net charge, helicity, hydrophobicity, and amphipathicity. The hydropathicity, mean relative hydrophobic moment, and charge of peptides were predicted using the HeliQuest (https://heliquest.ipmc.cnrs.fr/ (accessed on 12 March 2024)). Lysine is a hydrophilic amino acid, and its substitution leads to a decrease in the hydrophobicity of the SAAP-148 analogue. The anticipated results are consistent, with the degree of reduction in […] varying depending on the position at which lysine is substituted (Table 2). The amphipathicity of the peptides, as denoted by the μH (mean relative hydrophobic moment), is elaborated on in Table 2. The hydrophobic moment of SAAP-148 analogues was decreased except for SAAP-10, which is on account of the substitution occurring on the18th residue. (Figure 1) The 18th residue of SAAP-148 is glutamine, a polar amino acid residue, located at the junction of the hydrophobic and hydrophilic surfaces of the SAAP-148 α-helix. […] The retention time data determined by reversed-phase high-performance liquid chromatography (RP-HPLC) reflects the hydrophobicity difference between peptide analogues. It is well documented that the formation of a hydrophobic-binding domain due to peptide secondary structure can affect peptide interactions with reversed-phase matrices. This effect was observed particularly for amphipathic α-helical peptides. Given this preferred binding domain, amphipathic α-helical peptides are considerably more retentive than non-amphipathic peptides with the same amino acid composition.
This phenomenon was particularly evident in the case of amphipathic α-helical peptides. […] This discrepancy may be attributed to the lack of a well-defined α-helical structure in SAAP-148 and its analogues (Figure S1).

## CC[C@H](C)[C@H](NC(=O)[C@H](CCCCN)NC(=O)[C@H](CCC(=O)O)NC(=O)[C@H](CCCCN)NC(=O)[C@H](CO)NC(=O)[C@H](CCCCN)NC(=O)[C@H](CCCNC(=N)N)NC(=O)[C@H](Cc1ccccc1)NC(=O)[C@H](Cc1ccccc1)NC(=O)[C@H](CC(=O)O)NC(=O)CNC(=O)[C@H](CC(C)C)NC(=O)[C@@H](N)CC(C)C)C(=O)NCC(=O)N[C@@H](CCCCN)C(=O)N[C@@H](CCC(=O)O)C(=O)N[C@@H](Cc1ccccc1)C(=O)N[C@@H](CCCCN)C(=O)N[C@@H](CCCNC(=N)N)C(=O)N[C@H](C(=O)N[C@H](C(=O)N[C@@H](CCC(N)=O)C(=O)N[C@@H](CCCNC(=N)N)C(=O)N[C@H](C(=O)N[C@@H](CCCCN)C(=O)N[C@@H](CC(=O)O)C(=O)N[C@@H](Cc1ccccc1)C(=O)N[C@@H](CC(C)C)C(=O)N[C@@H](CCCNC(=N)N)C(=O)N[C@@H](CC(N)=O)C(=O)N[C@@H](CC(C)C)C(=O)N[C@H](C(=O)N1CCC[C@H]1C(=O)N[C@@H](CCCNC(=N)N)C(=O)N[C@H](C(=O)N[C@@H](CCC(=O)O)C(=O)N[C@@H](CO)C(=O)O)[C@@H](C)O)C(C)C)[C@@H](C)CC)C(C)C)[C@@H](C)CC [LL-37, reference compound]
[1]
  proportion of PI-positive cells, E. coli: 78.9%
[2]
  GM to G−: 12.49
[3]
  proportion of PI-positive cells, BEAS-2B: 31.2%
[4]
  Others: 0%
  Turn: 0%
  α-Helix: 100%
  β-Antiparallel: 0%
  β-Parallel: 0%
[5]
  MIC (GM): 28.72
[6]
  GM to G+: 100
[7]
  proportion of PI-positive cells, S. aureus: 46.9%
[8]
  Rt: 11.125 min
